Data: US20260297081A1, “COMPOUNDS AND METHODS OF TREATING CANCERS” (Cullgen Inc., priority 2023, published 2026)

Assays:
Type in all cases: cell-based
T47D cells [1] = test: Annexin V apoptosis flow cytometry, T47D (FIG. 3A); conditions: 6 days
Procedure: (§1) T47D cells were treated with DMSO, palbociclib, heterobifunctional compound CPD-10 for 6 days at doses approximating IC50 and IC90 concentrations as indicated (FIG. 3A). HCC1428 cells were treated with DMSO, palbociclib, heterobifunctional compound CPD-10, or its negative control compound CPD-143 for 6 days at doses approximating IC90 concentrations as indicated (FIG. 3B). Cells were harvested by trypsinization, staining was carried out using the Annexin V Apoptosis Detection Kit.
(§2) Assays were performed on the CytoFLEX Cytometer (Beckman Coulter), and data were analyzed using CytExpert software. For cell death and apoptosis analysis, cells were harvested by trypsinization, staining was carried out using the Annexin V Apoptosis Detection Kit (BD Biosciences). Briefly, cells were resuspended in 1× binding buffer and incubated with fluorochrome-conjugated Annexin V and 7-AAD for 15 min in darkness at room temperature.

FoxM1 = test: Immunoblotting of FoxM1 protein level (FIG. 1A-1B); conditions: Calu-1 (4 hours), MCF7 (24 hours)
Procedure: (§3) Calu-1 cells were treated with heterobifunctional compound CPD-10, or CDK4/6 inhibitor palbociclib at indicated concentrations for 4 hours (FIG. 1A). MCF7 cells were deprived of serum for 2 hours followed by treatment with CPD-10, or palbociclib at indicated concentrations for 24 hours (FIG. 1B).
(§4) Antibody and Reagent Anti-cyclin D1 (29785), anti-cyclin D2 (3741S), anti-cyclin D3 (2936S), anti-CDK4 (127905), anti-CDK6 (3136S), anti-phospho-Rb (8516S), anti-FoxM1 (54365), anti-cyclinA2(4656S), anti-vinculin antibody (187995) antibodies were purchased from Cell Signaling Technology. HRP-conjugated anti-α-tubulin antibody and anti-α-GAPDH antibody were purchased from GNI. Media, and other cell culture reagents were purchased from Thermo Fisher Scientific. CellTiter-Glo Luminescent Assay kit was purchased from Promega.
(§5) Calu-1, T47D, MCF7, HCC1428 and other cells were cultured at 37° C. with 5% CO2 in RPMI 1640 or DMEM medium supplemented with 10% fetal bovine serum. Cells were authenticated using the short tandem repeat (STR) assays. […]
(§6) Cultured cells were washed with cold PBS once and lysed in cold RIPA buffer supplemented with protease inhibitors and phosphatase inhibitors (Beyotime Biotechnology). […] Total protein concentrations in the lysates were determined following BCA assays (Beyotime Biotechnology). […] Protein bands were quantitated using the Image Lab software provided by Bio-Rad.

[2] = tested on: CCND1, CCND3, and CDK4 in MCF7 cells; test: Immunoblot of CCND1, CCND3 and CDK4 protein levels in MCF7 cells under serum starvation (FIG. 1B, 24 hours); conditions: MCF7, reduction of CCND1, CCND3, and CDK4 protein levels, serum starvation, 24 hours
Procedure: Specific exemplary heterobifunctional compounds were characterized in Calu-1, MCF7, T47D and other cells. Cells that express cyclin D1-3 and CDK4/6 proteins were treated with heterobifunctional compounds disclosed herein at indicated concentrations. MCF7 cells were deprived of serum for 2 hours followed by the treatment with heterobifunctional compounds. Cells were collected, lysed and subject to immunoblotting using an antibody specific to CCND1, CCND2, CCND3, CDK4, or FoxM1, cyclin A2, or phosphorylated Rb (S807/811) proteins. Tubulin or GAPDH was used as the loading control. DMSO treatment was used as the negative control.

T47D cells [3] = test: Anti-proliferation (viability) of ER+ breast cancer T47D cells, 6 days (Table 7, FIG. 2B); conditions: Homo sapiens, 144 h; T47D cells, 6 days, 10-point serial dilution; read-out: GI IC50 in T47D
Summary of the method: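 Cells treated with heterobifunctional compounds in 10-point serial dilution, then viability measured; Calu-1 NSCLC cells exposed for 3 days, ER+ T47D breast cancer cells for 6 days.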

HCC1428 cells = test: Annexin V apoptosis flow cytometry, HCC1428 (FIG. 3B); conditions: HCC1428, dose approximating IC90, 6 days
Procedure: as §1, §2

[4] = tested on: T47D palbo-resistant cells; test: CellTiter-Lumi cell viability assay, T47D palbo-resistant cells, 6 days (FIG. 4); conditions: Homo sapiens, 144 h
Procedure: Furthermore, we developed one ER^+ breast cancer T47D model with acquired resistance after long period of treatment with 1 μM palbociclib (over IC90). Cells were deemed resistant when growing in the presence of palbo at the same rate as parental cells. Palbo resistance was determined by CellTiter-Lumi cell viability assay (FIG. 4, IC50>10,000 nM).

cyclin A2 = test: Immunoblotting of cyclin A2 protein level (FIG. 1A-1B); conditions: Calu-1 (4 hours), MCF7 (24 hours)
Procedure: as §3, §4, §5, §6

CDK4 = CDK4 (Homo sapiens, UniProt P11802+Q16531); test: CDK4 percentage degradation in Calu-1 cells (Table 6); parameters: Cells that express cyclin D1-3 and CDK4/6 proteins were treated with heterobifunctional compounds; endogenous in cells; host or cells: Calu-1; conditions: 16 hours
Chain of CDK4 (P11802 2-303 limits assumed): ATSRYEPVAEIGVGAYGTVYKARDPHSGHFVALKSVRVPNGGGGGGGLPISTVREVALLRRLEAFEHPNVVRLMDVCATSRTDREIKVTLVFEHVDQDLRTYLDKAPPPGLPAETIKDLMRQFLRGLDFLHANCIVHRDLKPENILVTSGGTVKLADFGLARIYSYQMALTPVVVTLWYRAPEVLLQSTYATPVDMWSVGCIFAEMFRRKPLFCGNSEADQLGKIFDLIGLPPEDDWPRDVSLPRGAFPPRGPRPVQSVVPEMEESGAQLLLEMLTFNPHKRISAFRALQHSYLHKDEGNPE
Chain of CDK4 (P24385 whole entry partner): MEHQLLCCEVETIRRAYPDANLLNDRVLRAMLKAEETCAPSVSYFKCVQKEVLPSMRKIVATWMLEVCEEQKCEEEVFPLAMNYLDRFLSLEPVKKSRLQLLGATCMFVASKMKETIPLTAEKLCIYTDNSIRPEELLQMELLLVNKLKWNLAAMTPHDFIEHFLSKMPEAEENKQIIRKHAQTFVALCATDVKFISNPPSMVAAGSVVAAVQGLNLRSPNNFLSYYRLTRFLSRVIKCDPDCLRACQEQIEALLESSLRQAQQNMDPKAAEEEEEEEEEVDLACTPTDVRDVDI
Chain of CDK4 (Q16531 2-1140 limits assumed): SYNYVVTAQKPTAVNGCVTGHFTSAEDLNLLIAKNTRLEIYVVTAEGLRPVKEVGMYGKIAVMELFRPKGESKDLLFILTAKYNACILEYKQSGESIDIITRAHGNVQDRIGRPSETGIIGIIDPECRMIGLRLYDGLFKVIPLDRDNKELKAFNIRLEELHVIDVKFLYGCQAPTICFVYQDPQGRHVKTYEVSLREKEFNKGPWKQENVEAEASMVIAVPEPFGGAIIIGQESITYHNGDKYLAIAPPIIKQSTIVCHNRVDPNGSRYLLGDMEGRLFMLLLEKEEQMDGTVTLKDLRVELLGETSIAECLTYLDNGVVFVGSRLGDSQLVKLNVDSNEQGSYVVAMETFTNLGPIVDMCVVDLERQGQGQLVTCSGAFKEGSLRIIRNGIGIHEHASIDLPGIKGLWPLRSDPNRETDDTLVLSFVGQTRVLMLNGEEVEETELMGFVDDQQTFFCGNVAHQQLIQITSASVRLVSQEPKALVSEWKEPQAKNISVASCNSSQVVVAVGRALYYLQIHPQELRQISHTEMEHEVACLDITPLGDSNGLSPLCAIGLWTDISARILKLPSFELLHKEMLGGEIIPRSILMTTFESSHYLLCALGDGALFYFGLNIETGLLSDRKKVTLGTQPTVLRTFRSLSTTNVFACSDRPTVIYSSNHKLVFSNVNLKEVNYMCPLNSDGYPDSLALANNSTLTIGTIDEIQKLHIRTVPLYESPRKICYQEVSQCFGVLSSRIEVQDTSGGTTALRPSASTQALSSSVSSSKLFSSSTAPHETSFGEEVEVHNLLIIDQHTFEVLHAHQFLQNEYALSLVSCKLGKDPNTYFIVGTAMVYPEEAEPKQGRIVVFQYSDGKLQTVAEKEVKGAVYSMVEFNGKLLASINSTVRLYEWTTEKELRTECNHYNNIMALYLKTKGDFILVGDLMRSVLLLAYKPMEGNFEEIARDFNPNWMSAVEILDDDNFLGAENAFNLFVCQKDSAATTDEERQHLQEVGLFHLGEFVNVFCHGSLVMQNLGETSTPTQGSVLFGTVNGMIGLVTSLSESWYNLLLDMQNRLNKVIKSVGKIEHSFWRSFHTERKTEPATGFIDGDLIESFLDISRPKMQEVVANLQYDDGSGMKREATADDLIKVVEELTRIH
Summary of the method: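 Calu-1 cells exposed to heterobifunctional compounds at 40 nM or 200 nM for 16 h. Cyclin D1 and CDK4 levels measured by Western blot of RIPA lysates (BCA-normalised loading), bands quantified by densitometry and expressed as percentage degradation.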

## CNc1ccc(C(=O)Nc2ccc(N(C)C)nn2)c(NCCCCCCCNC(=O)CN2CCN(c3ccc(Nc4ncc5c(C)c(C(C)=O)c(=O)n(C6CCCC6)c5n4)nc3)CC2)n1 [CPD-10, 2-((7-(2-(4-(6-((6-acetyl-8-cyclopentyl-5-methyl-7-oxo-7,8-dihydropyrido[2,3-d]pyrimidin-2-yl)amino)pyridin-3-yl)piperazin-1-yl)acetamido)heptyl)amino)-N-(6-(dimethylamino)pyridazin-3-yl)-6-(methylamino)nicotinamide]
T47D cells [1]; 15 nM
  Annexin V+ population: 20.9%
T47D cells [1]; 200 nM
  Annexin V+ population: 62.2%
FoxM1
  FoxM1 protein level: inhibited downstream FoxM1 and cyclin A2 protein levels, and Rb phosphorylation in a concentration-dependent manner
[2]
  DC50: < 0.02 µM
T47D cells [3]
  IC50: ≤ 0.05 µM
HCC1428 cells
  Annexin V+ population: 55.8%
[4]
  IC50: 0.033 µM
Cyclin A2
  cyclin A2 protein level: inhibited downstream FoxM1 and cyclin A2 protein levels, and Rb phosphorylation in a concentration-dependent manner
CDK4; 40 nM
  inhibition at 0.04 µM: 50 to 80%
CDK4; 200 nM
  inhibition at 0.2 µM: > 80%
